Results on 19 molecules are retold here after patent US10316017B2, “COT modulators and methods of use thereof” (Gilead Sciences, Inc., priority 2015, dated 2019).

One test has as its system TNFα production in LPS-stimulated human monocytes. The test can be described thus: Cot Monocyte TNFα Cell Based Assay. The following applies: Homo sapiens, Monocyte, LPS-stimulated human monocytes, TNFα TR-FRET; read-out: EC50 TNF. Here is the method:
Example 60: Cot Monocyte TNFα Cell Based Assay
The cell suspension was then plated at a density of 5,000 cells/well onto black 384 well Greiner clear bottom plates. Plates were pre-spotted with test compounds and serially diluted in DMSO where 200 nL/well were delivered using the Echo 550 acoustic liquid dispenser (Labcyte®) for a final DMSO concentration of 0.5%. Plated cells were treated with compound for 1 hour at 37° C. Cells were then stimulated with 50 pg/ml of LPS (Sigma) excluding outside columns of plate used for unstimulated cell control wells. Cells were incubated for an additional 4 hours at 37° C. Cells were then spun out of the media and 5 ul of sample were taken and analyzed for total TNFα content using the TR-FRET Human TNFα detection system (CisBio). This system utilizes two labeled antibodies (cryptate and XL665) that bind to two different epitopes of the TNFα molecule and produce FRET signal proportional to the concentration of TNFα in the sample. Detection antibodies are mixed 50:50 and 5 μL were dispensed into each well. Plates were covered with clear seals and incubated at room temp overnight. […] Percent of control was calculated as follows: % Control=100×(RatioSample−Ratio0% stimulation)/(Ratio100% Stimulation−Ratio0% Stimulation) where unstimulated cells (0% stimulation) were the negative control and stimulated cells (100% stimulation) were used as the positive control.
For orientation: In TR-FRET formats the signal depends on donor and acceptor labels being close together.
In the case of `[2H][C@](Nc1cc(Cl)c2ncc(C#N)c(N[C@H](CCS(C)(=O)=O)c3ccccc3)c2c1)(c1ccc(F)cc1)c1cn(C2CC2)nn1` [Example 932, 8-chloro-6-(((1-cyclopropyl-1H-1,2,3-triazol-4-yl)(4-fluorophenyl)methyl-d)amino)-4-(((R)-3-(methylsulfonyl)-1-phenylpropyl)amino)quinoline-3-carbonitrile], the 50% effective concentration (EC50) (commonly the midpoint of the concentration-response curve) turned out to be 505 nM.

In the case of `CC(C)(C)CNc1c(C#N)cnc2c(Cl)cc(N[C@@H](c3ccccc3)c3cn(C4(C(F)F)CC4)nn3)cc12` [Example 1058, (S)-8-chloro-6-(((1-(1-(difluoromethyl)cyclopropyl)-1H-1,2,3-triazo1-4-yl)(phenyl)methyl)amino)-4-(neopentylamino)quinoline-3-carbonitrile], the concentration for a half-maximal effect (EC50) was 314 nM.

`Cc1cc(C#N)ccc1[C@H](Nc1cc(Cl)c2ncc(C#N)c(NCC(C)(C)C)c2c1)c1cn(C2(C(F)(F)F)CC2)nn1` [Example 1099, (S)-8-chloro-6-(((4-cyano-2-methylphenyl)(1-(1-(trifluoromethyl)cyclopropyl)-1H-1,2,3-triazol-4-yl)methyl)amino)-4-(neopentylamino)quinoline-3-carbonitrile]: the EC50 is 188 nM.

The same test, now with this note: Homo sapiens, Monocyte, TNFα in LPS-stimulated human monocytes; read-out: EC50 TNF.
In the case of `[2H]C(Nc1cc(Cl)c2ncc(C#N)c(NC3[C@H]4CCC[C@@H]34)c2c1)(c1ccc(F)cc1)c1cn(C2CC2)nn1` (stereo in doubt) [Example 117, 4-(((1R,5S)-bicyclo[3.1.0]hexan-6-yl)amino)-8-chloro-6-(((S)-(1-cyclopropyl-1H-1,2,3-triazol-4-yl) (4-fluorophenyl)methyl-d)amino)quinoline-3-carbonitrile], the EC50 turned out to be 377 nM.

Turning to `CC(C)n1cc([C@@H](Nc2cc(Cl)c3ncc(C#N)c(Nc4ccc(F)c(Cl)c4)c3c2)c2cccc(COCCN(C)C)c2)nn1` [Compound 40], the concentration for a half-maximal effect (EC50) stood at 1260 nM.

For the molecule `[2H][C@](Nc1cc(Cl)c2ncc(C#N)c(NCC3(CC)CCC3)c2c1)(c1ccc(F)cc1)c1cn(C2CC2)nn1` [Example 261, (S)-8-chloro-6-(((1-cyclopropyl-1H-1,2,3-triazol-4-yl)(4-fluorophenyl)methyl-d)amino)-4-(((1-ethylcyclobutyl)methyl)amino)quinoline-3-carbonitrile], the EC50 is 504 nM.

On to `[2H][C@](Nc1cc(Cl)c2ncc(C#N)c(NCC3(C)CCOCC3)c2c1)(c1ccc(F)cc1)c1cn(-c2cccnc2)nn1` [Example 332, (S)-8-chloro-6-(((4-fluorophenyl)(1-(pyridin-3-yl)-1H-1,2,3-triazol-4-yl)methyl-d)amino)-4-(((4-methyltetrahydro-2H-pyran-4-yl)methyl)amino)quinoline-3-carbonitrile], for which the EC50 came out at 426 nM.

As to `CC[C@@H](Nc1c(C#N)cnc2c(Cl)cc(N[C@@H](c3ccc(F)cc3)c3cn(-c4ccccc4)nn3)cc12)c1ccccc1` [Example 392, 8-chloro-6-(((S)-(4-fluorophenyl)(1-phenyl-1H-1,2,3-triazol-4-yl)methyl)amino)-4-(((R)-1-phenylpropyl)amino)quinoline-3-carbonitrile], the EC50 worked out at 308 nM.

`Cc1ccccc1[C@H](Nc1cc(Cl)c2ncc(C#N)c(Nc3cnc(F)c(F)c3)c2c1)c1c[nH]nn1` [Example 396, (S)-8-chloro-4-((5,6-difluoropyridin-3-yl)amino)-6-((o-tolyl(1H-1,2,3-triazol-4-yl)methyl)amino)quinoline-3-carbonitrile]: the half-maximal effective concentration (EC50) was determined as 1230 nM.

Take `N#Cc1cnc2c(Cl)cc(N[C@@H](c3ccccc3)c3c[nH]nn3)cc2c1Nc1cnc(F)c(F)c1` [Example 582, (S)-8-chloro-4-((5,6-difluoropyridin-3-yl)amino)-6-((phenyl(1H-1,2,3-triazol-4-yl)methyl)amino)quinoline-3-carbonitrile]: the half-maximal effective concentration (EC50) worked out at 734 nM.

Take `CC(C)(C)N1CCC(n2cc([C@@H](Nc3cc(Cl)c4ncc(C#N)c(Nc5csc(Cl)c5)c4c3)c3ccccc3)nn2)CC1` [Example 641, (S)-6-(((1-(1-(tert-butyl)piperidin-4-yl)-1H-1,2,3-triazol-4-yl)(phenyl)methyl)amino)-8-chloro-4-((5-chlorothiophen-3-yl)amino)quinoline-3-carbonitrile]: the half-maximal effective concentration (EC50) was 1530 nM.

`CC(C)(C)N1CCC(n2cc([C@@H](Nc3cc(Cl)c4ncc(C#N)c(Nc5cc(F)c(F)c(Cl)c5)c4c3)c3ccc(Cl)cc3)nn2)CC1` [Example 661, (S)-6-(((1-(1-(tert-butyl)piperidin-4-yl)-1H-1,2,3-triazol-4-yl)(4-chlorophenyl)methyl)amino)-8-chloro-4-((3-chloro-4,5-difluorophenyl)amino)quinoline-3-carbonitrile]: the EC50 is 1090 nM.

`CC(C)(C)N1CCC(n2cc([C@@H](Nc3cc(Cl)c4ncc(C#N)c(Nc5ccc(F)c(Cl)c5Cl)c4c3)c3ccc(Cl)cc3)nn2)CC1` [Example 665, (S)-6-(((1-(1-(tert-butyl)piperidin-4-yl)-1H-1,2,3-triazol-4-yl)(4-chlorophenyl)methyl)amino)-8-chloro-4-((2,3-dichloro-4-fluorophenyl)amino)quinoline-3-carbonitrile]: the EC50 worked out at 1970 nM.

As for `CC(C)(C)N1CCC(n2cc([C@@H](Nc3cc(Cl)c4ncc(C#N)c(Nc5cccc(Cl)c5)c4c3)c3ccc(Cl)cc3)nn2)CC1` [Example 776, (S)-6-(((1-(1-(tert-butyl)piperidin-4-yl)-1H-1,2,3-triazol-4-yl)(4-chlorophenyl)methyl)amino)-8-chloro-4-((3-chlorophenyl)amino)quinoline-3-carbonitrile], the concentration giving a half-maximal response (EC50) came out at 1240 nM.

For `N#CCn1cc([C@@H](Nc2cc(Cl)c3ncc(C#N)c(Nc4ccc(F)c(Cl)c4)c3c2)c2ccc(F)cc2)nn1` [Example 815, (S)-8-chloro-4-((3-chloro-4-fluorophenyl)amino)-6-(((1-(cyanomethyl)-1H-1,2,3-triazol-4-yl)(4-fluorophenyl)methyl)amino) quinoline-3-carbonitrile], the 50% effective concentration (EC50) worked out at 311 nM.

Still in this test, the particulars now being: Homo sapiens, Monocyte, read-out: EC50 TNF.
As for `[2H][C@](Nc1cc(Cl)c2ncc(C#N)c(NC3CN4CCC3CC4)c2c1)(c1ccc(F)cc1)c1cn(C2CC2)nn1` (stereo partly drawn) [Example 317, 8-chloro-6-(((S)-(1-cyclopropyl-1H-1,2,3-triazol-4-yl)(4-fluorophenyl)methyl-d)amino)-4-(quinuclidin-3-ylamino)quinoline-3-carbonitrile], the EC50 was 8260 nM.

The test is the same for the next values; noted with them: LPS-stimulated human monocytes, TNFα TR-FRET; read-out: EC50 TNF.
“8-chloro-4-((4-cyna-1- phenylbutyl)amino)-6-(((1- cyclopropyl-1H-1,2,3-triazol-4- yl)(4-fluorophenyl)methyl- d)amino)quinoline-3-carbonitrile [Example 981]”: the concentration for a half-maximal effect (EC50) is 318 nM.

As for `CC(C)(C)CNc1c(C#N)cnc2c(Cl)cc(NC(c3cn(C4(CO)CC4)nn3)c3ccccc3Cl)cc12` (stereo not drawn) [Example 964, 8-chloro-6-(((2-chlorophenyl) (1-(1-(hydroxymethyl)cyclopropyl)-1H-1,2,3-triazo1-4-yl)methyl-d)amino)-4-(neopentylamino)quinoline-3-carbonitrile], the EC50 amounted to 254 nM.

The test is the same for the next values; noted with them: second value of the cell IC50/EC50; human monocytes, 50 pg/ml LPS, 4 hours.
On to `CCN1CCC(n2cc(CNc3cc(Cl)c4ncc(C#N)c(Nc5ccc(F)c(Cl)c5)c4c3)nn2)CC1` [Comparative Example 1, reference compound], for which the “IC50/EC50 [nM]: EC50 (TNFα, monocytes)” value is on record as 310 nM.

For the next test, the target named is T1, human Cot catalytic domain (30-397 amino acids) (Homo sapiens, UniProt P41279).
T1 construct: Purified recombinant human Cot catalytic domain (30-397 amino acids) was purchased from Cama Biosciences; purchased Cama Biosciences (so in the source)
T1 sequence (P41279 30-397): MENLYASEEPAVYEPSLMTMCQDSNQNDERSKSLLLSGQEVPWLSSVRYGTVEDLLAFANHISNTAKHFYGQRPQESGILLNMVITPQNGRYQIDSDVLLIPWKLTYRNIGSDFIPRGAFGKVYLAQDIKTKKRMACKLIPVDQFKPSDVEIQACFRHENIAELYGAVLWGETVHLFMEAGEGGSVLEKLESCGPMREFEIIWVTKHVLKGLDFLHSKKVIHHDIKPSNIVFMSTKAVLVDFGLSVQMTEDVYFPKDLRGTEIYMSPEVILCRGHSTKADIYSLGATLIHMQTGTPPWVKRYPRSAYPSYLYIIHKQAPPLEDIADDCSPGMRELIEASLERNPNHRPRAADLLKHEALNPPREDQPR
The test can be described thus: High Throughput Cot Biochemical Assay (KinEASE TR-FRET). The following applies: Cot KinEASE TR-FRET (HTRF) biochemical assay, 400 μM ATP; read-out: IC50 HTRF. A digest of the protocol:
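First, purified human Cot (aa 30-397) at 5 nM phosphorylates an XL665-labeled STK3 peptide (1 μM) at 400 μM ATP, pH 7.0, 0.1% DMSO. Then a europium-conjugated phospho-specific antibody binds the product, giving the TR-FRET signal.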
For `[2H]C(Nc1cc(Cl)c2ncc(C#N)c(NC3[C@H]4CCC[C@@H]34)c2c1)(c1ccc(F)cc1)c1cn(C2CC2)nn1` (stereo in doubt) [Example 117, 4-(((1R,5S)-bicyclo[3.1.0]hexan-6-yl)amino)-8-chloro-6-(((S)-(1-cyclopropyl-1H-1,2,3-triazol-4-yl) (4-fluorophenyl)methyl-d)amino)quinoline-3-carbonitrile], the IC50 (commonly the point on the concentration scale where inhibition reaches its midpoint) was found to be 16 nM.

The test is the same for the next values; noted with them: Cot KinEASE TR-FRET, 400 μM ATP; read-out: IC50 HTRF.
For the molecule “8-chloro-4-((4-cyna-1- phenylbutyl)amino)-6-(((1- cyclopropyl-1H-1,2,3-triazol-4- yl)(4-fluorophenyl)methyl- d)amino)quinoline-3-carbonitrile [Example 981]”, the IC50 came to 22 nM.
